The source of these data is patent publication US8247538B2, “Preparation method of radioisotope labeling compound using carbon nanotube” (Korea Atomic Energy Research Institute, priority 2006, dated 2012).

The nature of the data set: In vivo dynamic kinetics, gamma camera imaging after intravenous injection. Also on record: species or system New Zealand White male rabbits. Particulars: rabbits, 100 μCi/0.1 ml into left ear vein. How it is done: The ^99mTc-2,6-diisopropylacetanilidoiminodiacetic acid prepared in Example 1 was assayed for in vivo dynamic kinetics as follows.
After 6-week-old New Zealand White male rabbits (2887.6±101.5 g, n=3) were anesthetized with ketamine and xylazine, the radioactive compound of Example 1 was injected at a dose of 100 μCi/0.1 ml into the left ear vein of each of the rabbits. All of the rabbits were placed in a pronating posture. Moving pictures were taken for 30 min of each of the rabbits using a gamma camera fitted with a low energy, multipurpose collimator while 16 still pictures were also taken at predetermined time intervals. The image analyzer was set to 140 KeV with a 20% energy window. Image data were analyzed under the dynamic procedure of a Microdelta system (Simens, USA). The static images were taken at 1.52, 3.45, 5.37, 7.30, 9.22, 11.15, 13.07, 15.00, 16.52, 18.45, 20.37, 22.30, 24.22, 26.15, 28.07 and 30 min after the injection, and the results are given in FIG. 3.

Regarding “^99mTc-2,6-diisopropylacetanilidoiminodiacetic acid [Example 1]”, the “in vivo distribution seen in gamma camera images (FIG. 3)” value (images 1.52-30 min after injection) is “detected prominently in the hepatobiliary system, with the highest concentration at the liver”. Further, the “contrast ratio between images taken of the liver and of other organs, compared with conventional contrast media for imaging the hepatobiliary system” value (imaging for 30 min) is on record as “higher”.
